We go through 21 compounds from patent publication US9079880B2, “Rho kinase inhibitors” (Boehringer Ingelheim International GmbH, priority 2010, dated 2015).

A word on the IC50: it is the point on the concentration scale where inhibition reaches its midpoint.

Assay [1] has as its target T1, ROCKII (1-543) (Homo sapiens (Human), UniProt O75116). Nature of the assay: Luciferin-Luciferase Assay (PKLight ATP detection). Format: biochemical. The settings on record: 750 nM ATP, 500 nM peptide, 7.5 nM kinase. The protocol: 1. Luciferin-Luciferase Assay
The activity of ROCKII (1-543) kinase was measured utilizing Cambrex PKLight ATP Detection Reagent, a homogeneous assay technology using luciferin-luciferase to quantify residual ATP. The assay was performed in 384-well low-volume, white, non-binding surface microtiter plates (Corning). The assay buffer was 25 mM HEPES, pH 7.5, 10 mM MgCl2, 50 mM KCl, 0.2% BSA, 0.01% CHAPS, 100 μM Na3VO4 and 0.5 mM DTT. Test compounds, dissolved in neat DMSO at 500 μg/mL, were serially diluted for dose response for a final starting concentration of 3 μg/mL in 1% DMSO of assay buffer. ROCKII (1-543) (62,408Da) was diluted in assay buffer to a final concentration of 7.5 nM in a total volume of 15 μL. Positive controls were reaction mixtures containing no test compound; negative controls (blanks) were reaction mixtures containing no kinase. After 15 minutes of pre-incubation of the test compounds with the kinase, a mixture of ATP and peptide substrate ([…]) in assay buffer was added to each well for a final concentration of 750 nM ATP and 500 nM peptide, respectively. After 90 minutes of incubation of the kinase reaction at 28° C. temperature, 10 μL of PKLight ATP Detection Reagent (warmed to room temperature previously) was added to each well. The assay plate was incubated at room temperature for additional 15 minutes and then read on an Analyst in luminescence mode. Dose-response experiments for each of the test compounds were conducted in quadruplet. IC50 values of test compounds represent 50% response of the positive control from the dose-response curve.
Target sequence in this assay (O75116 1-543): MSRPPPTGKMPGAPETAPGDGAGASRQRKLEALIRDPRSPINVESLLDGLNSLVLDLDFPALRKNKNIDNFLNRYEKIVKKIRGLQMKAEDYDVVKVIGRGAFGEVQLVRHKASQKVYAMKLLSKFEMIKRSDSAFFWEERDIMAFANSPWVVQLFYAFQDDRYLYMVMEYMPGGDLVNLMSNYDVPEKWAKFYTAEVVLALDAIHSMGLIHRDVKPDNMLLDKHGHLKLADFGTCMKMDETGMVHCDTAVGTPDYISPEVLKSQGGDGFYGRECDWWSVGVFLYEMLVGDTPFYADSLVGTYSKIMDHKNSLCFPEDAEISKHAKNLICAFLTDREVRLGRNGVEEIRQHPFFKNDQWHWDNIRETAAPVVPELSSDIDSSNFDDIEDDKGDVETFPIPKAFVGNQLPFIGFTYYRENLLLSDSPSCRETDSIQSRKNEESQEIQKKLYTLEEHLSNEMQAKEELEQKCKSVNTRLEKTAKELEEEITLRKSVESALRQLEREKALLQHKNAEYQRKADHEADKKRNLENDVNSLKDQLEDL

Assay [2] addresses T1, ROCKII (1-543). The assay can be described thus: IMAP Assay (fluorescence polarization, FAM S6 peptide). Format: biochemical. The settings on record: 100 μM ATP, 200 nM FAM S6 peptide, 1 nM kinase; read-out: Assay 2 IC50. How it is done: This assay is performed using FAM S6 substrate peptide (Catalogue #R7184) and IMAP FP Screening Express Kit detection reagents from Molecular Devices (Sunnyvale, Calif.) in IMAP kinase reaction buffer (Tris-HCl, pH 7.2, 10 mM MgCl2, 0.05% NaN3, 0.1% phosphate-free BSA) containing 1 mM DTT. Test compounds dissolved in neat DMSO at 0.3 mg/mL are serially diluted 1 to 3 for concentration response in 100% DMSO. The DMSO serial dilutions are further diluted 33.33-fold in kinase reaction buffer, and 10 μL of this buffer dilution is transferred to Corning black 96-well half area NBS plates for a final top concentration of 3 μg/mL in 1% DMSO. 10 μL aliquot of 3 nM ROCKII (1-543) diluted in kinase reaction buffer is added to each assay well for a final concentration of 1 nM kinase. 10 μL of a mixture of 600 nM FAM S6 peptide and 300 μM ATP diluted in kinase reaction buffer is added to each well for a final concentration of 200 nM peptide and 100 μM ATP. The kinase reaction mixture is incubated for 60 minutes at room temperature. Positive controls are reaction mixtures containing no test compound and negative controls (blanks) are reaction mixtures containing no kinase. The kinase reaction is stopped by addition of 60 μL IMAP progressive binding reagent (Catalog #R7284) diluted 400-fold in 1× Binding buffer A. After 30 min of incubation at room temperature, the plates are read for fluorescence polarization on Analyst Plate Reader using Ex 485 nm, Em 530 nm, and FL 505 dichroic mirror. The mP signals are converted to percent of control (POC) values using the formula: POC=100*(Signal−BCTRL)÷(PCTRL−BCTRL)
Where Signal is the test well signal, BCTRL is the average of background (negative control) well signals on the plate and PCTRL is the average of positive control well signals on the plate. For the concentration-responsive compounds, POC as a function of test compound concentration is fitted to a 4-parameter logistic equation of the form: Y=A+(B−A)/[1+(x/C)D] Where A, B, C, and D are fitted parameters (parameter B is fixed at zero POC), and x and y are the independent and dependent variables, respectively. The IC50 is determined as the inflection point parameter, C.
Target sequence in this assay (O75116 1-543, species assumed): as the sequence (O75116 1-543) above

The test system of assay [3] is spontaneously hypertensive rat, renal hypertensive rat and deoxycortisone acetate salt hypertensive rat models. The settings on record: cited from earlier work.
In assay [4] the test system is neointimal formation in rats. The settings on record: cited from earlier work.
For the next assay, the system named is Dahl salt-sensitive rats. The settings on record: rat, in vivo; cited from earlier work.
Assay [5] deals with IL-1 beta-induced coronary stenosis. The settings on record: long term treatment; cited from earlier work.
A further assay concerns rat stroke model. The settings on record: in vivo; cited from earlier work.

The structures appear in SMILES notation.

For `CN(C)[C@H]1CCc2nc(NC(=O)c3cccc([C@H]4CCCN4C(=O)c4ccc5[nH]c(=O)ccc5c4)c3)sc2C1` [Compound 108], the IC50 on ROCKII (1-543) [1] turned out to be 2.3 nM; on ROCKII (1-543) [2] it was 3.6 nM.
For the compound `N#Cc1cccc2c1CCN2C(=O)N1CCC[C@@H]1c1cccc(C(=O)Nc2nc3c(s2)C[C@@H](N2CCOCC2)CC3)c1` [Compound 110], the IC50 against ROCKII (1-543) [1] and at ROCKII (1-543) [2] was 2.9 nM each time.
`COc1ccc(C(=O)N2CCC[C@@H]2c2cccc(C(=O)Nc3nc4c(s3)C[C@@H](N3CCOCC3)CC4)c2)cc1OC` [Compound 112]: the IC50 against ROCKII (1-543) [1] was 3.6 nM; on ROCKII (1-543) [2], 6.8 nM.
Turning to `COc1ccc(C(=O)N2CCC[C@@H]2c2cccc(C(=O)Nc3nc4c(s3)C[C@@H](N3CCOCC3)CC4)c2)cc1C` [Compound 116], the results for the IC50 on ROCKII (1-543) [1] and on ROCKII (1-543) [2] were 7.8 nM and 9.7 nM, respectively.
Regarding `O=C(Nc1nc2c(s1)C[C@@H](N1CCOCC1)CC2)c1cccc([C@H]2CCCN2C(=O)c2ccc(-c3cnco3)cc2)c1` [Compound 118], the figures for the IC50 on ROCKII (1-543) [1] and on ROCKII (1-543) [2] were 2.5 nM and 6.9 nM, respectively.
Turning to `O=C(Nc1nc2c(s1)C[C@@H](N1CCOCC1)CC2)c1cccc([C@H]2CCCN2C(=O)c2csc(-c3ccncc3)n2)c1` [Compound 120], the values for the IC50 on ROCKII (1-543) [1] and at ROCKII (1-543) [2] were 3.2 nM and 7.9 nM, respectively.
Turning to `O=C(Nc1nc2c(s1)C[C@@H](N1CCOCC1)CC2)c1cccc([C@H]2CCCN2C(=O)c2ccc(-n3ccnc3)cc2)c1` [Compound 122], the IC50 at ROCKII (1-543) [1] is 3.5 nM; at ROCKII (1-543) [2], 8.3 nM.
With `NC(=O)c1ccc2nc(C(=O)N3CCC[C@@H]3c3cccc(C(=O)Nc4nc5c(s4)C[C@@H](N4CCOCC4)CC5)c3)cn2c1` [Compound 124], the concentration for half-maximal inhibition (IC50) on ROCKII (1-543) [1] amounted to 2.3 nM; at ROCKII (1-543) [2], 6.7 nM.
Taken in the same sequence, the figures for `O=C(Nc1nc2c(s1)C[C@@H](N1CCOCC1)CC2)c1cccc([C@H]2CCCN2C(=O)c2ccc3[nH]c(=O)ccc3c2)c1` [Compound 126] were 2.7 nM and 7 nM.
On to `Cc1nc(-c2ccncc2)sc1C(=O)N1CCC[C@@H]1c1cccc(C(=O)Nc2nc3c(s2)C[C@@H](N2CCOCC2)CC3)c1` [Compound 128], for which the IC50 was 3.6 nM against ROCKII (1-543) [1] and 29 nM at ROCKII (1-543) [2].
Taken in the same sequence, the figures for `O=C(Nc1nc2c(s1)C[C@@H](N1CCOCC1)CC2)c1cccc([C@H]2CCCN2C(=O)c2ccc3cc(O)ccc3c2)c1` [Compound 130] were 2.5 nM and 6.3 nM.
For `O=C(Nc1nc2c(s1)C[C@@H](N1CCOCC1)CC2)c1cccc([C@H]2CCCN2C(=O)c2ccc(-c3ccncc3)cc2)c1` [Compound 132] the same measures were 2.6 nM and 17 nM.
For `Nc1nonc1-n1nnc(C(=O)N2CCC[C@@H]2c2cccc(C(=O)Nc3nc4c(s3)C[C@@H](N3CCOCC3)CC4)c2)c1-c1ccccc1` [Compound 134] the same measures were 2.7 nM and 30 nM.
Regarding `O=C(Nc1nc2c(s1)C[C@@H](N1CCOCC1)CC2)c1cccc([C@H]2CCCN2C(=O)c2csc(-c3cccnc3)n2)c1` [Compound 136], the IC50 against ROCKII (1-543) [1] is 2.6 nM; on ROCKII (1-543) [2] it was 6.9 nM.
In the case of `O=C(Nc1nc2c(s1)C[C@@H](N1CCOCC1)CC2)c1cccc([C@H]2CCCN2C(=O)c2cccc(-c3cn[nH]c3)c2)c1` [Compound 140], the half-inhibitory concentration (IC50) at ROCKII (1-543) [1] came to 2.5 nM; on ROCKII (1-543) [2] it was 4.9 nM.
For `CN1CCc2nc(NC(=O)c3cccc([C@H]4CCCN4C(=O)c4cn5ccc(C#N)cc5n4)c3)sc2C1` [Compound 148, 3-[(R)-1-(7-Cyano-imidazo[1,2-a]pyridine-2-carbonyl)-pyrrolidin-2-yl]-N-(5-methyl-4,5,6,7-tetrahydro-thiazolo[5,4-c]pyridin-2-yl)-benzamide], the IC50 is 2.9 nM on ROCKII (1-543) [1] and 12 nM at ROCKII (1-543) [2].
Taken in the same sequence, the figures for `N#Cc1ccc(NC(=O)COc2cccc(C(=O)Nc3nc4c(s3)CC(N3CCN(C5CC5)CC3)CC4)c2)cc1` (stereo not drawn) [Compound 152] were 6.1 nM and 24 nM.
For the compound `CN1CCN(C2CCc3nc(NC(=O)c4cccc(OCC(=O)Nc5ccc(C#N)cc5)c4)sc3C2)CC1` (stereo not drawn) [Compound 154], the IC50 worked out at 6.5 nM on ROCKII (1-543) [1] and 33 nM on ROCKII (1-543) [2].
For `COCCN(C)C1CCc2nc(NC(=O)c3cccc(OCC(=O)Nc4ccc(C#N)cc4)c3)sc2C1` (stereo not drawn) [Compound 156] the same measures were 7.2 nM and 31 nM.
As to `C[C@@H](N)[C@H]1CC[C@H](C(=O)Nc2ccncc2)CC1` [Compound Y-27632, Y-27632], the “blood pressure in control rats” value in assay [3] (control rats) is on record as “only a minor effect on blood pressure”. In addition, the “blood pressure in three rat models of hypertension” value in assay [3] (hypertensive rats) was “significantly decrease blood pressure”. The neointimal formation entry in assay [4] is on record as “inhibited neointimal formation”. Also, the “ventricular hypertrophy and function” value in the assay on Dahl salt-sensitive rats is “improve ventricular hypertrophy and function”.
On to `O=S(=O)(c1cccc2cnccc12)N1CCCNCC1` [fasudil], for which, in assay [5], the coronary constrictive remodeling result is on record as “promote a regression of coronary constrictive remodeling” and the coronary stenosis entry is given as “progressively reduce coronary stenosis”. For the same compound, the “infarct size and neurologic deficit” value in the assay with rat stroke model was “reduce both the infarct size and neurologic deficit”.
